Laboratory results published in patent publication US7595401B2, “Therapeutic compounds and their use in cancer” (Myriad Pharmaceuticals, Inc., priority 2006, dated 2009).

Molecular target: purified human Hsp90
Assay: Binding Assay: fluorescence polarization with BODIPY-labeled geldanamycin
Settings: BODIPY-GM 10 nM, Hsp90 30 nM
Experimental: Compound binding to purified Hsp90 was monitored using BODIPY-labeled geldanamycin (BODIPY-GM) in a fluorescence polarization assay adapted from Kim et al. (Journal of Biomolecular Screening 2004, 9(5):375-381). Compound dilutions (in 100% DMSO) were added to black-bottom 96-well plates (Greiner; 2% DMSO final), and equal volumes of BODIPY-GM (10 nM final) and purified human Hsp90 (Stressgen, SPP-770; 30 nM final) in assay buffer (20 mM HEPES-KOH pH 7.3, 50 mM KCl, 5 mM MgCl2, 20 mM Na2MoO4, 0.01% NP-40, 0.1 mg/mL bovine gamma globulin [Invitrogen, P2045], 2 mM DTT) were added sequentially to yield a final volume of 50 microliters. Plates were incubated overnight at room temperature. Parallel and perpendicular fluorescence measurements were read (LJL BioSystems Analyst AD plate reader) with excitation/emission wavelengths of 485/530 nm. Background fluorescence (buffer only) was subtracted, and fluorescence polarization (FP) values, expressed in mP units, were calculated from parallel and perpendicular fluorescence readings as follows: FP=(parallel−perpendicular)/(parallel+perpendicular)*1000
Percent inhibition was calculated by normalizing the FP values to those obtained in parallel reactions containing DMSO and subtracting these normalized values from 100%. Intrinsic compound fluorescence was independently monitored, and FP data points confounded by compound fluorescence were excluded from the analysis.

| Structure (SMILES) | IC50 | % Inhibition at 5 μM Compound Concentration |
| --- | --- | --- |
| COc1ccc(Sc2nc3c(N)ncnc3n2CCC2CCN(C(C)=O)CC2)cc1F [Example 567, 9-[2-(1-Acetylpiperidin-4-yl)ethyl]-8-[(3-fluoro-4-methoxyphenyl)thio]-9 H-purin-6-amine] | > 5000 nM |  |
| CC(C)N1CCN(CCn2c(Sc3cc4c(cc3Br)OCO4)nc3c(N)ncnc32)CC1 [Example 487, 8-[(6-Bromo-1,3-benzodioxol-5-yl)thio]-9-[2-(4-isopropylpiperazin-1-yl)ethyl]-9H-purin-6-amine] | 900 nM |  |
| Nc1ncnc2c1nc(Sc1cc(Cl)c(Cl)cc1Cl)n2CCc1ccccc1 [Example 259, 9-(2-Phenylethyl)-8-[(2,4,5-trichlorophenyl)thio]-9H-purin-6-amine] | 12000 nM |  |
| CC(=O)N1CCC(CCn2cnc(N)c3nc(Sc4cc5c(cc4C#N)OCO5)nc2-3)CC1 [Example 621, 6-({3-[2-(1-Acetylpiperidin-4-yl)ethyl]-6-amino-3 H-purin-8-yl}thio)-1,3-benzodioxole-5-carbonitrile] | > 5000 nM |  |
| Nc1ncnc2c1nc(Sc1ccc3c(c1)OCO3)n2CCn1cccc1 [Example 49, 8-(Benzo[1,3]dioxol-5-ylsulfanyl)-9-(2-pyrrol-1-yl-ethyl)-9H-purin-6-ylamine] | 1200 nM | 55% |
| COc1ccc(OC)c(Sc2nc3c(N)ncn(CCc4ccccc4C)c-3n2)c1 [Example 70, 8-(2,5-dimethoxy-phenylsulfanyl)-3-(2-o-tolyl-ethyl)-3H-purin-6-ylamine] |  | 7% |
| CC(=O)N1CCC(CCn2c(Sc3ccc4c(c3)CCO4)nc3c(N)ncnc32)CC1 [Example 528, 9-[2-(1-Acetylpiperidin-4-yl)ethyl]-8-(2,3-dihydro-1-benzofuran-5-ylthio)-9 H-purin-6-amine] | > 5000 nM |  |
| CC(C)(C)OC(=O)N1CCC(=CCn2cnc(N)c3nc(Sc4cc5c(cc4Br)OCO5)nc2-3)CC1 [Example 389, tert-Butyl 4-(2-{6-amino-8-[(6-bromo-1,3-benzodioxol-5-yl)thio]-3H-purin-3-yl}ethylidene)piperidine-1-carboxylate] |  | 38% |
| COc1ccc(OC)c(Sc2nc3c(N)ncn(CCc4ccsc4)c-3n2)c1 [Example 198, 8-(2,5-dimethoxy-phenylsulfanyl)-3-(2-thiophen-3-yl-ethyl)-3H-purin-6-ylamine] |  | 18% |
| CC(C)(N)C(=O)N1CCC(CCn2c(Sc3cc4c(cc3Br)OCO4)nc3c(N)ncnc32)CC1 [Example 750, 9-{2-[1-(2-Amino-2-methylpropanoyl)piperidin-4-yl]ethyl}-8-[(6-bromo-1,3-benzodioxol-5-yl)thio]-9H-purin-6-amine] | 180 nM |  |
| COc1ccc(OC)c(Sc2nc3c(N)ncnc3n2CCc2cccs2)c1 [Example 199] | 110 nM |  |
| COc1ccc(OC)c(Sc2nc3c(N)ncn(C4Cc5ccccc5C4O)c-3n2)c1 (stereo not drawn) [Example 236, 2-{6-Amino-8-[(2,5-dimethoxyphenyl)thio]-3H-purin-3-yl}indan-1-ol] |  | 0% |
| CCCN1CCCCC1CCn1c(Sc2cc3c(cc2Br)OCO3)nc2c(N)ncnc21 (stereo not drawn) [Example 386, 8-[(6-Bromo-1,3-benzodioxol-5-yl)thio]-9-[2-(1-propylpiperidin-2-yl)ethyl]-9H-purin-6-amine] | 110 nM |  |
| Nc1ncnc2c1nc(Sc1cc3c(cc1Br)OCO3)n2CCc1ccc(-c2ccccc2)cc1 [Example 171, 9-(2-Biphenyl-4-yl-ethyl)-8-(6-bromo-benzo[1,3]dioxol-5-ylsulfanyl)-9H-purin-6-ylamine] | > 25000 nM |  |
| Nc1ncn(CCC2=CCN(Cc3ccccc3)CC2)c2nc(Sc3cc4c(cc3Br)OCO4)nc1-2 [Example 425, 3-[2-(1-Benzyl-1,2,3,6-tetrahydropyridin-4-yl)ethyl]-8-[(6-bromo-1,3-benzodioxol-5-yl)thio]-3H-purin-6-amine] |  | 6% |
| Nc1ncnc2c1nc(Sc1cc3c(cc1Br)OCO3)n2CCC1CCN(C(=O)[C@@H]2CCCN2)CC1 [Example 753, 8-[(6-Bromo-1,3-benzodioxol-5-yl)thio]-9-[2-(1-L-prolyl-piperidin-4-yl)ethyl]-9H-purin-6-amine] | 59 nM |  |
| CC(C)C(Cn1c(Sc2cc3c(cc2Br)OCO3)nc2c(N)ncnc21)c1ccccc1 (stereo not drawn) [Example 126, 8-(6-Bromo-benzo[1,3]dioxol-5-ylsulfanyl)-9-(3-methyl-2-phenyl-butyl)-9H-purin-6-ylamine] | 300 nM |  |

| Structure (SMILES) | IC50 | % Inhibition at 5 μM Compound Concentration |
| --- | --- | --- |
| CCC(CC)N1CCN(CCn2cnc(N)c3nc(Sc4cc(OC)ccc4OC)nc2-3)CC1 [Example 628, 8-[(2,5-Dimethoxyphenyl)thio]-3-{2-[4-(1-ethylpropyl)piperazin-1-yl]ethyl}-3 H-purin-6-amine] |  | 23.00% |
| CS(=O)(=O)N1CCC(CCn2cnc(N)c3nc(Sc4cc5c(cc4Br)OCO5)nc2-3)CC1 [Example 366, 8-[(6-Bromo-1,3-benzodioxol-5-yl)thio]-3-{2-[1-(methylsulfonyl)piperidin-4-yl]ethyl}-3H-purin-6-amine] |  | 20% |
| COc1ccc(OC)c(Sc2nc3c(N)ncnc3n2CCN2C(=O)CCCC2=O)c1 [Example 485, 1-(2-{6-Amino-8-[(2,5-dimethoxyphenyl)thio]-9H-purin-9-yl}ethyl)piperidine-2,6-dione] | 1000 nM |  |
| COc1ccc(OC)c(Sc2nc3c(N)ncn(CC(O)c4ccc(Cl)cc4Cl)c-3n2)c1 (stereo not drawn) [Example 108, 2-[6-amino-8-(2,5-dimethoxy-phenylsulfanyl)-purin-3-yl]-1-(2,4-dichloro-phenyl)ethanol] |  | 30% |
| Nc1ncn(CCc2ccccc2)c2nc(Sc3ccc4c(c3)OCO4)nc1-2 [Example 5, 8-(benzo[1,3]dioxol-5-ylsulfanyl)-3-phenethyl-3H-purin-6-ylamine] |  | 8% |
| CC(=O)N1CCC(CCn2c(Sc3nc4ccc(F)cc4s3)nc3c(N)ncnc32)CC1 [Example 655, 9-[2-(1-Acetylpiperidin-4-yl)ethyl]-8-[(6-fluoro-1,3-benzothiazol-2-yl)thio]-9H-purin-6-amine] | > 5000 nM |  |
| CC(C)(C)NS(=O)(=O)c1ccc(CCn2c(Sc3cc4c(cc3Br)OCO4)nc3c(N)ncnc32)cc1 [Example 273, 4-(2-{6-Amino-8-[(6-bromo-1,3-benzodioxol-5-yl)thio]-9H-purin-9-yl}ethyl)-N-(tert-butyl)benzenesulfonamide] | 1300 nM |  |
| COc1cc(Sc2nc3c(N)ncnc3n2CCc2c(F)cccc2Cl)c(OC)cc1Cl [Example 256, 8-[(4-Chloro-2,5-dimethoxyphenyl)thio]-9-[2-(2-chloro-6-fluorophenyl)ethyl]-9H-purin-6-amine] | 470 nM |  |
| Cc1cc(=O)oc2cc(Sc3nc4c(N)ncn(CCC5CCN(C=O)CC5)c-4n3)ccc12 [Example 533, 4-(2-{6-Amino-8-[(4-methyl-2-oxo-2 H-chromen-7-yl)thio]-3 H-purin-3-yl}ethyl)piperidine-1-carbaldehyde] |  | 0.00% |
| COc1ccc(OC)c(Sc2nc3c(N)ncnc3n2CCC2CCCCC2)c1 [Example 169, 9-(2-Cyclohexyl-ethyl)-8-(2,5-dimethoxyphenyl-sulfanyl)-9H-purin-6-ylamine] | 470 nM | 37% |
| CC(C)(C)OC(=O)NC1(C(=O)N2CCC(CCn3c(Sc4cc5c(cc4Br)OCO5)nc4c(N)ncnc43)CC2)CC1 [Example 709, tert-Butyl(1-{[4-(2-{6-amino-8-[(6-bromo-1,3-benzodioxol-5-yl)thio]-9H-purin-9-yl}ethyl)piperidin-1-yl]carbonyl}cyclopropyl)carbamate] | 230 nM |  |
| COc1ccc(CCn2cnc(N)c3nc(Sc4cc5c(cc4Br)OCO5)nc2-3)cc1OC [Example 297, 8-[(6-Bromo-1,3-benzodioxol-5-yl)thio]-3-[2-(3,4-dimethoxyphenyl)ethyl]-3H-purin-6-amine] |  | 8.0% |
| Nc1ncnc2c1nc(Sc1cc3c(cc1Br)OCO3)n2CCC1CCN(C(=O)[C@H]2C[C@@H]2F)CC1 [Example 522, 8-[(6-Bromo-1,3-benzodioxol-5-yl)thio]-9-[2-(1-{[(2S)-2-fluorocyclopropyl]carbonyl}piperidin-4-yl)ethyl]-9 H-purin-6-amine] | 53 nM |  |
| COc1ccc(OC)c(Sc2nc3c(N)ncnc3n2CCc2c(F)c(F)c(F)c(F)c2F)c1 [Example 218, 8-(2,5-Dimethoxy-phenylsulfanyl)-9-(2-pentafluorophenyl-ethyl)-9H-purin-6-ylamine] | > 3000 nM |  |
| CC(=O)N1CCN(CCn2c(Sc3cc4c(cc3Br)OCO4)nc3c(N)ncnc32)CC1 [Example 382, 9-[2-(4-Acetylpiperazin-1-yl)ethyl]-8-[(6-bromo-1,3-benzodioxol-5-yl)thio]-9H-purin-6-amine] | 140 nM |  |
| Nc1ncnc2c1nc(Sc1cc3c(cc1Br)OCO3)n2CCC1CCNCC1 [Example 465, 8-[(6-bromo-1,3-benzodioxol-5-yl)thio]-9-(2-piperidin-4-ylethyl)-9H-purin-6-amine] | 470 nM |  |
| CC(C)CN1CCC(CCn2c(Sc3cc4c(cc3Br)OCO4)nc3c(N)ncnc32)CC1 [Example 453, 8-[(6-Bromo-1,3-benzodioxol-5-yl)thio]-9-[2-(1-isobutylpiperidin-4-yl)ethyl]-9H-purin-6-amine] | 700 nM |  |
